# Literature values in US11427542B2, “Compounds for treatment of cardiac arrhythmias and heart failure” (Elex Biotech, Inc., priority 2018, dated 2022).
# Tested on: R176Q/+ mice
# Settings: cardiac pacing, versus placebo-treated
smiles,measurement,value
CCCCNc1ccc(C(=O)OCCN(CC)CC)c(OC)c1 [Compound 1],arrhythmic development (bidirectional VT / sustained polymorphic VT) following pacing,protected from arrhythmic development following pacing
